What was measured:
[1] = tested on: A549; assay: Antiproliferative activity against human A549 cells assessed as cell viability measured after 48 hrs incubation by MTT assay; format: functional, cell-based; details: A549, 48 h
[2] = tested on: MCF7; assay: Induction of apoptosis in human MCF7 cells assessed as early apoptotic cells at 3 uM measured after 48 hrs incubation by Annexin V-FITC/PI double staining assay (reference value: 5.73%); format: functional
[3] = tested on: MCF7; assay: Induction of apoptosis in human MCF7 cells assessed as late apoptotic cells at 3 uM measured after 48 hrs incubation by Annexin V-FITC/PI double staining assay (reference value: 0.68%); format: functional
[4] = tested on: MCF7; assay: Induction of apoptosis in human MCF7 cells assessed as necrotic cells at 3 uM measured after 48 hrs incubation by Annexin V-FITC/PI double staining assay (reference value: 0.77%); format: functional
[5] = tested on: MCF7; assay: Induction of apoptosis in human MCF7 cells assessed as decrease in mitochondrial membrane potential by measuring increase in JC-1 monomer (green fluorescence) at 6 uM incubated for 48 hrs by JC-1 staining based flow cytometry analysis (reference value: 2.96%); format: functional; set-up: scale not given: the % may be the effect or the level left
[6] = tested on: MCF7; assay: Induction of cell cycle arrest in human MCF7 cells assessed as accumulation of cells at G0/G1 phase at 6 uM measured after 48 hrs by PI staining based flow cytometry analysis (reference value: 58.42%); format: functional
[7] = tested on: MCF7; assay: Induction of cell cycle arrest in human MCF7 cells assessed as accumulation of cells at S phase at 6 uM measured after 48 hrs by PI staining based flow cytometry analysis (reference value: 24.67%); format: functional
[8] = tested on: MCF7; assay: Induction of cell cycle arrest in human MCF7 cells assessed as accumulation of cells at G0/G1 phase at 1 uM measured after 48 hrs by PI staining based flow cytometry analysis (reference value: 58.42%); format: functional
[9] = tested on: MCF7; assay: Induction of cell cycle arrest in human MCF7 cells assessed as accumulation of cells at S phase at 1 uM measured after 48 hrs by PI staining based flow cytometry analysis (reference value: 24.67%); format: functional
[10] = tested on: MCF7; assay: Inhibition of phosphorylation of Akt in human MCF7 cells measured after 48 hrs by Western blot analysis; format: cell-based; details: dose 1-6 µM
[11] = Toxicity in healthy BALB/c mouse assessed as pathological changes in heart at 20 mg/kg, ip daily for 14 consecutive days by HE staining based assay; format: organism-based; details: in vivo, 336 h, time 14 day
[12] = Toxicity in healthy BALB/c mouse assessed as pathological changes in lungs at 20 mg/kg, ip daily for 14 consecutive days by HE staining based assay; format: organism-based; details: in vivo, 336 h, time 14 day

Compound `CC(C)[C@@H](C)/C=C/[C@@H](C)[C@H]1CC[C@@H]2[C@]1(C)CC[C@H]1[C@]23C=C[C@]2(C[C@@H](OC(=O)NCCNC(=O)CN4C(=O)S/C(=C\c5cccc6ccccc56)C4=O)CC[C@]12C)OO3` has an IC50 [1] of 4.76 µM, an Activity [2] of 22.8% and an Activity [3] of 0.77%. It also gave an Activity [4] of 0.77%, an Activity [5] of 49.5% and an Activity [6] of 89.86%. The Activity [7] was 2.87%, the Activity [8] was 66.09% and the Activity [9] was 14.93%. The inhibition [10] was “Dose-dependent-effect”, the Activity [11] was “Non-toxic” and the Activity [12] was “Non-toxic”.

Reference: ChEMBL document CHEMBL6078657, “Thiazolidinedione-based structure modification of ergosterol peroxide provides thiazolidinedione-conjugated derivatives as potent agents against breast cancer cells through a PI3K/AKT/mTOR pathway” (Bioorg Med Chem, 2025)
